From patent US9023767B2, “γ-Secretase substrates and methods of use” (Memorial Sloan-Kettering Cancer Center, priority 2009, dated 2015)

Tests used:
γ-secretase [1] = molecular target: T1, γ-secretase (Homo sapiens (Human), UniProt P49768); test: Notch1 processing in ΔE-Notch1 transfected HEK293 cells, NICD Western blot; assay type: cell-based; details: 2 μM, 48 hrs
Procedure: FIG. 5. […] The conditioned media were collected and secreted Aβ40 was measured with 6E10/G2-10 antibodies (mean±SEM; n=3). The activities of the peptide treatments were normalized to the DMSO treatment. […] The same experiments were performed as FIG. 5c. The cell lysates were analyzed by CT-15 antibody. Upper panel: full length APP. Lower panel: CTFs. […] The ΔE-Notch1 (a Notch construct with deletion of the extracellular portion and tagged by Myc) was transfected into HEK293 cells.

γ-secretase [2] = molecular target: T2, γ-secretase (Homo sapiens (Human), UniProt P49768+Q92542); test: Photoaffinity labeling of γ-secretase in HeLa membrane by Aβ17-23BPA20-biotin; assay type: binding; details: inhibitor at 2 μM
Procedure: FIG. 4. […] Various concentrations of inhibitor were incubated with APP substrate (S4) or Notch peptide substrate containing the C-terminal biotinylated transmembrane domain of Notch1 and HeLa cell membrane in the presence of 0.25% CHAPSO. Aβ40 was detected by G2-10 antibody. The cleaved Notch product was detected by Val1744 antibody that specifically recognizes the cleaved product between Gly1743 and Val1744. Activities are expressed as percentage relative to reading that was produced in DMSO control. […] Various concentrations of S4 substrate were incubated with HeLa membrane in fixed concentrations of inhibitor as indicated. The double reciprocal velocity (1/v) and substrate concentrations (1/S) are plotted to determine the type of inhibition. […] Assays were conducted as described in FIG. 4A. […] The labeled samples were solubilized with RIPA buffer. Biotinylated proteins were captured with streptavidin-agarose and probed by immunoblotting using antibodies against biotin, PS1-CTF, PS1-NTF, Nicastrin, PEN-2 and APH-1a. HeLa cell membrane proteins were directly loaded onto lanes indicated by an arrow in the PEN-2 and APH-1a blots as positive controls. […] Upper panel: PS1-NTF; Lower panel: PS1-CTF.
The labeled proteins were eluted with 2×SDS sample buffer and analyzed with Western blotting using antibodies against the components of γ-secretase complex. Protein concentration was determined with the Dc protein assay kit (Bio-Rad)
After the photolyzed membranes were solubilized, biotinylated proteins were captured, eluted and analyzed by western blotting with antibodies against biotin, PS1, nicastrin, PEN-2 and APH-1.

γ-secretase [3] = molecular target: T1, γ-secretase; test: HTRF γ-secretase assay with Sb4 substrate; assay type: biochemical; details: 384-well, 2% DMSO; read-out: IC50, HTRF assay
Description: We set out to transfer the assay conditions obtained with the ECL method to an HTRF detection based format (FIG. 10b). The HTRF detection mixture consisted of mouse G2-10 antibody for recognition of the C-terminal epitope of the cleaved product, a Europium-labeled anti-mouse antibody (commonly, an antibody is conjugated with a cryptate ligand that forms a three dimensional coordination cage structure surrounding a lanthanide such as Eu^3+), along with Streptavidin conjugated to a trimeric form of the fluorescent protein allophycocyanin referred to as XL665. Cleavage of Sb4 substrate allows G2-10 mouse antibody to bind to the Aβ40-processed site on the cleaved substrate. The Steptavidin-XL665 conjugate binds directly with the biotin moiety on the N-terminal end of the Sb4 derived product. The anti-mouse Europium antibody targets to the G2-10 antibody, bringing all of these entities into close proximity. The Europium and XL665 reagents are a compatible pair of donor-acceptor fluorophores, and excitation of Europium at 337 nm results in fluorescence energy resonance transfer (FRET) to XL665 which fluoresces at 665 nm (FIG. 10b).
Human γ-secretase was prepared from HeLa cell membranes as described previously (Li et al., 2000). Briefly, HeLa cell pellet was resuspended in 1×MES buffer (50 mM MES, pH 6.0, 150 mM KCl, 5 mM CaCl2, 5 mM MgCl2) and treated with ‘complete’ protease inhibitor (Boehringer Mannheim). The resuspended pellet was mechanically homogenized by passing the cells through the French Press (Spectronic Instruments), and subsequently spun down at 800 g to remove cell debris and nuclei. Next, the supernatants were spun at 100,000 g in order to pellet the membranes. The pelleted membranes were resuspended in 1×MES buffer to approximately 12 mg/ml. This entire procedure was performed at 4° C. HeLa membranes were solubilized using 1% CHAPSO detergent in 1×MES buffer with protease inhibitors. After incubating for 1 hr at 4° C., the membrane was spun down at 100,000 g and the supernatants were collected and stored at −70° C. The collected fraction is defined as solubilized γ-secretase.
HTRF conditions were initially optimized in a 384-well format using a final volume of 20 μl. The high control for this assay was defined as the observed γ-secretase activity in the presence of 1% DMSO (v/v) and the low control as the activity observed when including 100 nM final concentration of Compound E (v/v). First, we determined a tolerable DMSO concentration that would not interfere with γ-secretase activity. Even with 3% DMSO (v/v) present in the assay mixture, there was virtually no effect on the γ-secretase activity (FIG. 11a), which was critical as delivery of library screening compounds required a final concentration of 2% DMSO (v/v) in the γ-secretase reaction. Next, we titrated the HTRF mixture components in an effort to minimize reagent costs for use in high throughput screening. […] Additionally, we varied Europium conjugated anti-mouse antibody and determined that 1 nM of this reagent in the HTRF mixture was sufficient for our assay conditions even though the signal continued to increase with higher concentrations of the anti-mouse antibody (FIG. 11c).
We have further miniaturized the HTRF assay from the established 384-well format to a 1536-well platform enabling more efficient screening of large chemical libraries. […] Based on these optimization experiments, we set our final assay conditions at 0.3 nM G2-10, 1 nM anti-mouse antibody, 15 nM Streptavidin-XL665, and proceeded with the assay at 10 μl final volume (5 μl γ-secretase mix+5 μl HTRF mix) in the 1536-well format for screening.
The pilot assay was performed in duplicate on two separate days to account for any day-to-day variability. […]

A20 mouse lymphoma cells = test: Lymphoma cell proliferation assay, [3H]thymidine incorporation; assay type: cell-based; details: 48 hours
Procedure: For a lymphoma cell proliferation assay, A20 mouse lymphoma cells were seeded in a 96-well plate at a concentration of 5×10^5 cells/ml in 100 μl RPMI media containing 2% fetal bovine serum. An additional 100 μl of media containing DMSO or γ-secretase inhibitor was added and incubated for 48 hours at 37° C. After this incubation, the cells were incubated for 5 hours with 2 μCi/ml [^3H]thymidine at 37° C. Proliferative response was then evaluated by harvesting the tritiated DNA from cells using a Skatron cell harvester and proliferation assessed as a function of [^3H]thymidine incorporation measured on a β-counter.

γ-secretase [4] = molecular target: T2, γ-secretase; test: In vitro γ-secretase assay, HeLa membrane, APP-derived substrates, ECL detection; assay type: biochemical; details: S4 substrate
Procedure: The recombinant proteins were incubated with γ-secretase (40 μg/ml) in the presence or absence of 1 μM γ-secretase inhibitor L-685,458 (CAS [292632-98-5], shown below). The reaction mixture contains 0.25% 3[(3-cholamidopropyl) dimethylammonio]-2-hydroxypropanesulfonic acid (CHAPSO), 0.1 μg/μl BSA, protease inhibitor, 50 mM PIPES, pH 7.0, 5 mM MgCl2, 5 mM CaCl2 and 150 mM KCl. The reaction was incubated for 2.5 hr at 37° C. and stopped by adding RIPA buffer (150 mM NaCl, 1.0% NP-40, 0.5% sodium
[drawing 1] deoxycholate, 0.1% SDS, 50 mM Tris HCl, pH 8.0). The products were detected with various antibody combinations as previously described (Lai et al., 2003; J. Biol. Chem., 278: 22475-22481; Li et al., 2000, Proc. Natl. Acad. Sci. USA, 97: 6138-6143; Yin et al., 2007, J. Biol. Chem., 282:23639-23644) using electrochemiluminescence (ECL). The amount of product was determined using synthetic peptide or recombinant standards. The Km and Vmax were determined from the Michaelis-Menten equation Michaelis-Menten Kinetics (ν=Vm[S]/([…]; ν: initial rate; Vm: maximum velocity; Km: the Michaelis-Menten constant, S: substrate). P-values were calculated from Student t-test. 7.1.5 Cell-Based Aβ Production Assay and Western Blot

In the case of `CC(C)C[C@H](NC(=O)[C@H](Cc1ccccc1)C[C@@H](O)[C@H](Cc1ccccc1)NC(=O)OC(C)(C)C)C(=O)N[C@@H](Cc1ccccc1)C(N)=O` [L-685,458], the “production of NICD” value (γ-secretase [1]) is reported as “NICD was not detected”, the “block of photo-crosslinking of PS1-CTF and PS1-NTF by Aβ17-23BPA20-biotin” value (γ-secretase [2]) is reported as “completely blocked” and the IC50 (γ-secretase [3]) is reported as 1.4 nM. For the same molecule, the “inhibition of cellular proliferation” value (A20 mouse lymphoma cells) was “able to inhibit cellular proliferation” and the “type of inhibition (Lineweaver-Burk)” value (γ-secretase [4]) was “competitive inhibition”.
